Data on 1 molecule can be found in US9216169B2, “Pharmaceutical composition comprising candesartan or ester thereof and chlortalidone, and use thereof” (TIANJIN INSTITUTE OF PHARMACEUTICAL RESEARCH, priority 2011, dated 2015).

The conditions of test [1]: clinical studies; cited from earlier work.
Test [2] concerns Spontaneously hypertensive rats (SHR). As to the kind of experiment: SBP of SHR by Tail-Cuff method, first administration and continuous administration for 14 days (Examples 8-12). Conditions: for AUC0-24h: after first administration. The format is in vivo, rat. Here is the method:
Spontaneously hypertensive rats (SHR), male, are provided by Beijing Vital River Laboratory Animal Technology Co., Ltd. The number of animal production license is SCXK (Jing) 2007-0001. Animals are raised in an observation room at the room temperature of 25±2° C. controlled by central air-conditioning system and with artificial lighting of 12 h/day. The animals are raised in separate cages sized 43×27×18 cm with 4 animals for each cage. The rats are free access to water and are fed with block fodder everyday, and the water supply is refreshed once a day. The temperature of the room for measuring the blood pressure is 26±2° C.
The blood pressure is measured by Tail-Cuff method and the hear rate is measured according to the pulse frequency. Animals are pre-trained for the blood pressure measurement for more than 2 weeks so as to adapt to the environment of measurement. Animals are placed in a isothermal bag at 37° C. to be prewarmed for 5 to 10 min for formal measurement. Blood pressures of the rats are measured from tail arteries for 2 to 3 times at rest states, and an average value is taken as each blood pressure measured value. All data are collected and preserved by a computer.
SHRs with systolic blood pressures (SBPs)>190 mmHg are selected for experiment.
Rats are randomly divided into 20 groups according to their blood pressures with each group having 8-10 rats. Animals are fasted overnight and measured for the blood pressure of pre-administration at the day of experiment, and then administered drugs in accordance with the following method:
The single-drug group is intragastrically administered candesartan (Can) or chlorthalidone (Chl), with the dosage of Can of 0.1, 0.2, 0.4 mg/kg respectively and the dosage of Chl of 0.3125, 0.625, 1.25 mg/kg respectively;
According to the clinical single-drug specification, the ratios of Can+Chl are set as follows:
For the ratio of Can:Chl=1:6.25, one dose of 0.1+0.625 mg/kg is set;
For the ratio of Can:Chl=1:3.125, two doses of 0.2+0.625 and 0.4+1.25 mg/kg are set;
For the ratio of Can:Chl=1.28:1, one dose of 0.4+0.3125 mg/kg is set;
For the ratio of Can:Chl=2.56:1, one dose of 0.4+0.15625 mg/kg is set;
The administration volumes are all 5 mL/kg. Rats are continuously administered for 14 days. SBPs are measured 2, 4, 8, 12 and 24 hours after the first administration. On the day of 3, 7, 14 days after administration, the blood pressures are measured before administration and 5 hours after administration. Areas under blood pressure reduction-time curve from 0 to 24 h and from 0 to 14 days (AUC0-24h, AUC0-14d) are calculated.
The calculated results are expressed as mean±standard error ( x±SE); statistical treatment is performed using unpaired t test between groups to compare the significance of the average difference; the interaction between drugs are determined by using factorial analysis of variance, and P<0.05 means the difference has statistical significance.

As to `NS(=O)(=O)c1cc(C2(O)NC(=O)c3ccccc32)ccc1Cl` (stereo not shown) [Chl, Chlorthalidone], in test [1], the “valid control rate of blood pressure” value is 68.2%. Also, the AUC0-14d is on record as −125.9 mmHg · d in test [2] (Chl 0.3125 mg/kg i.g. for 14 days), −134.5 mmHg · d in test [2] (Chl 0.625 mg/kg i.g. for 14 days) and −174.2 mmHg · d in test [2] (Chl 1.25 mg/kg i.g. for 14 days). The AUC0-24h is on record as −133.1 mmHg · h in test [2] (Chl 0.3125 mg/kg i.g.), −190.4 mmHg · h in test [2] (Chl 0.625 mg/kg i.g.) and −208.1 mmHg · h in test [2] (Chl 1.25 mg/kg i.g.).
